Assay results from US6306860A, “2,5-pyridinedicarboxylic acid derivatives” (Dong Wha Pharm. Inc. Co., Ltd., priority 1998, dated 2001).
Structures can show the parent of a compound that is named as a salt. Where two headings read alike, the source gives them in different places.

Assays:
HBV polymerase = molecular target: T1, HBV polymerase (Hepatitis B virus genotype D subtype ayw, UniProt P03156); assay: Inhibitory activities against HBV polymerase (reverse transcriptase activity) in vitro; type: biochemical; details: read-out: Inhibitory activity of HBV-RT (%); for inhibition at 0.01 µg/mL: 0.01 μg/ml; for inhibition at 0.1 µg/mL: 0.1 μg/ml; for inhibition at 1 µg/mL: 1 μg/ml
T1 construct: made in house; host or cells: E. coli
T1 sequence (P03156 whole entry): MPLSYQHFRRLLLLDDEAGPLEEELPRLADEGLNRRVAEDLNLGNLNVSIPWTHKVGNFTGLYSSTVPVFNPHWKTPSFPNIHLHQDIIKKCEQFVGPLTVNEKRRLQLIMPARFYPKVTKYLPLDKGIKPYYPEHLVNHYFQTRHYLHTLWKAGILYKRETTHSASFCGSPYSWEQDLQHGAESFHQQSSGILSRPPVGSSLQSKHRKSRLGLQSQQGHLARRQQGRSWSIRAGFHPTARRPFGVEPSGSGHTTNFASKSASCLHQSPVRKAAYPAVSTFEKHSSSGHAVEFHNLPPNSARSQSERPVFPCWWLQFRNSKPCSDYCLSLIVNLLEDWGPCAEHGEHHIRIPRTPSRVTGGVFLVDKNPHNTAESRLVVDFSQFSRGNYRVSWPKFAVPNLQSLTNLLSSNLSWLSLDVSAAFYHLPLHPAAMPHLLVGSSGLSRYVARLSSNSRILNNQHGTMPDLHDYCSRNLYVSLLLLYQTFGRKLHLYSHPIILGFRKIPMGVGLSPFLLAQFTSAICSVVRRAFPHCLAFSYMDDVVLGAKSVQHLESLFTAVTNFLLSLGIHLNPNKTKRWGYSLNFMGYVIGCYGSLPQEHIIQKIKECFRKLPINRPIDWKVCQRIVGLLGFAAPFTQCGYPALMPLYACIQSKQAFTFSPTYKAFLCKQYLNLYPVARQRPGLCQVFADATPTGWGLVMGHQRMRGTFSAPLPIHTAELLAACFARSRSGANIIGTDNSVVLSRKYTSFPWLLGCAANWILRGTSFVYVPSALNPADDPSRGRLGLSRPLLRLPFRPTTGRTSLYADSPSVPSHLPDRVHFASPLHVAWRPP
In short: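 Recombinant HBV polymerase expressed in E. coli was incubated with reaction mixture and test compound for 18~24 hours at 14° C.~30° C. Reverse transcriptase product, labelled with biotin- and DIG-modified nucleotide, detected ELISA-style with peroxidase anti-DIG antibody; inhibition judged relative to controls without compound.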

[1] = molecular target: T2, HIV reverse transcriptase (Human immunodeficiency virus type 1 group M subtype B, UniProt P04585); assay: In vitro inhibition test against HIV reverse transcriptase; type: biochemical; details: read-out: Inhibitory activity of HIV-RT (%)
T2 construct: purchased Boehringer Mannheim
In short: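 Non-radioactive colorimetric kit assay: 40 ng HIV-RT with poly(A)/oligo(dT)15 template/primer plus DIG-dUTP, biotin-dUTP and TTP, incubated with compound 1 h at 37 °C. Product captured on streptavidin, detected with anti-DIG-POD and ABTS; A405 read, with activity compared to a no-compound control.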

HBV = details: results of some studies; cited from earlier work

## CC(C)CNc1cccnc1N1CCN(C(=O)c2ccc(C(=O)NCCCn3ccnc3)cn2)CC1 [Exam. 84, N-[3-(1H-imidazol-1-yl)propyl]-6-[1-[3-(isobutylamino)-2-pyridyl]piperazin-4-yl-carbonyl]nicotinamide]
HBV polymerase
  inhibition at 0.01 µg/mL: 60%
  inhibition at 0.1 µg/mL: 72%
  inhibition at 1 µg/mL: 88%
[1]; 0.1 μg/ml
  inhibition at 0.1 µg/mL: 50%
[1]; 1 μg/ml
  inhibition at 1 µg/mL: 62%

## CC(C)Nc1cccnc1N1CCN(C(=O)c2ccc(C(=O)Nc3ncccc3O)cn2)CC1 [Exam. 85, N-(3-hydroxy-2-pyridyl)-6-[1-[3-(isopropylamino)-2-pyridyl]piperazin-4-yl-carbonyl]nicotinamide]
HBV polymerase
  inhibition at 0.01 µg/mL: 61%
  inhibition at 0.1 µg/mL: 70%
  inhibition at 1 µg/mL: 88%
[1]; 0.1 μg/ml
  inhibition at 0.1 µg/mL: 47%
[1]; 1 μg/ml
  inhibition at 1 µg/mL: 70%

## CC(C)NC(=O)c1ccc(C(=O)N2CCN(CCO)CC2)nc1 [Exam. 87, 6-[1-(2-hydroxyethyl)piperazin-4-yl-carbonyl]-N-isopropylnicotinamide.HCl]
HBV polymerase
  inhibition at 0.01 µg/mL: 52%
  inhibition at 0.1 µg/mL: 58%
  inhibition at 1 µg/mL: 75%
[1]; 0.1 μg/ml
  inhibition at 0.1 µg/mL: 60%
[1]; 1 μg/ml
  inhibition at 1 µg/mL: 81%

## CC(C)CNC(=O)c1ccc(C(=O)N2CCN(CCO)CC2)nc1 [Exam. 88, 6-[1-(2-hydroxyethyl)piperazin-4-yl-carbonyl]-N-isobutylnicotinamide.HCl]
HBV polymerase
  inhibition at 0.01 µg/mL: 55%
  inhibition at 0.1 µg/mL: 67%
  inhibition at 1 µg/mL: 81%
[1]; 0.1 μg/ml
  inhibition at 0.1 µg/mL: 50%
[1]; 1 μg/ml
  inhibition at 1 µg/mL: 70%

## CCNC(=O)c1ccc(C(=O)N2CCN(CCO)CC2)nc1 [Exam. 89, N-ethyl-6-[1-(2-hydroxyethyl)piperazin-4-yl-carbonyl]nicotinamide.HCl]
HBV polymerase
  inhibition at 0.01 µg/mL: 35%
  inhibition at 0.1 µg/mL: 50%
  inhibition at 1 µg/mL: 68%
[1]; 0.1 μg/ml
  inhibition at 0.1 µg/mL: 35%
[1]; 1 μg/ml
  inhibition at 1 µg/mL: 62%

## O=C(NCCO)c1ccc(C(=O)N2CCN(CCO)CC2)nc1 [Exam. 93, N-(2-hydroxyethyl)-6-[1-(2-hydroxyethyl)piperazin-4-yl-carbonyl]nicotinamide]
HBV polymerase
  inhibition at 0.01 µg/mL: 30%
  inhibition at 0.1 µg/mL: 59%
  inhibition at 1 µg/mL: 73%
[1]; 0.1 μg/ml
  inhibition at 0.1 µg/mL: 25%
[1]; 1 μg/ml
  inhibition at 1 µg/mL: 50%

## CC[C@H](CO)NC(=O)c1ccc(C(=O)N2CCN(CCO)CC2)nc1 [Exam. 94, 6-[1-(2-hydroxyethyl)piperazin-4-yl-carbonyl]-N-[(1R)-1-(hydroxymethyl)propyl]nicotinamide.HCl]
HBV polymerase
  inhibition at 0.01 µg/mL: 20%
  inhibition at 0.1 µg/mL: 51%
  inhibition at 1 µg/mL: 72%
[1]; 0.1 μg/ml
  inhibition at 0.1 µg/mL: 30%
[1]; 1 μg/ml
  inhibition at 1 µg/mL: 62%

## COCCNC(=O)c1ccc(C(=O)N2CCN(CCO)CC2)nc1 [Exam. 98, 6-[1-(2-hydroxyethyl)piperazin-4-yl-carbonyl]-N-(2-methoxyethyl)nicotinamide.HCl]
HBV polymerase
  inhibition at 0.01 µg/mL: 57%
  inhibition at 0.1 µg/mL: 70%
  inhibition at 1 µg/mL: 85%
[1]; 0.1 μg/ml
  inhibition at 0.1 µg/mL: 61%
[1]; 1 μg/ml
  inhibition at 1 µg/mL: 76%

## COCCCNC(=O)c1ccc(C(=O)N2CCN(CCO)CC2)nc1 [Exam. 99, 6-[1-(2-hydroxyethyl)piperazin-4-yl-carbonyl]-N-(3-methoxypropyl)nicotinamide]
HBV polymerase
  inhibition at 0.01 µg/mL: 15%
  inhibition at 0.1 µg/mL: 60%
  inhibition at 1 µg/mL: 68%
[1]; 0.1 μg/ml
  inhibition at 0.1 µg/mL: 65%
[1]; 1 μg/ml
  inhibition at 1 µg/mL: 75%

## COCCN(CCOC)C(=O)c1ccc(C(=O)N2CCN(CCO)CC2)nc1 [Exam. 100, N,N-bis(2-methoxyethyl)-6-[1-(2-hydroxyethyl)piperazin-4-yl-carbonyl]nicotinamide.HCl]
HBV polymerase
  inhibition at 0.01 µg/mL: 20%
  inhibition at 0.1 µg/mL: 49%
  inhibition at 1 µg/mL: 77%
[1]; 0.1 μg/ml
  inhibition at 0.1 µg/mL: 40%
[1]; 1 μg/ml
  inhibition at 1 µg/mL: 64%

## COC(CNC(=O)c1ccc(C(=O)N2CCN(CCO)CC2)nc1)OC [Exam. 101, N-(2,2-dimethoxyethyl)-6-[1-(2-hydroxyethyl)piperazin-4-yl-carbonyl]nicotinamide]
HBV polymerase
  inhibition at 0.01 µg/mL: 55%
  inhibition at 0.1 µg/mL: 63%
  inhibition at 1 µg/mL: 85%
[1]
  inhibition at 0.1 µg/mL: 41%
  inhibition at 1 µg/mL: 56%

## O=C(NCCN1CCOCC1)c1ccc(C(=O)N2CCN(CCO)CC2)nc1 [Exam. 102, 6-[1-(2-hydroxyethyl)piperazin-4-yl-carbonyl]-N-[2-(morpholin-4-yl)-ethyl]nicotinamide.HCl]
HBV polymerase
  inhibition at 0.01 µg/mL: 32%
  inhibition at 0.1 µg/mL: 56%
  inhibition at 1 µg/mL: 70%
[1]; 0.1 μg/ml
  inhibition at 0.1 µg/mL: 25%
[1]; 1 μg/ml
  inhibition at 1 µg/mL: 40%

## O=C(NCc1ccco1)c1ccc(C(=O)N2CCN(CCO)CC2)nc1 [Exam. 103, N-(2-Furylmethyl)-6-[1-(2-hydroxyethyl)piperazin-4-yl-carbonyl]nicotinamide.HCl]
HBV polymerase
  inhibition at 0.01 µg/mL: 20%
  inhibition at 0.1 µg/mL: 54%
  inhibition at 1 µg/mL: 72%
[1]; 0.1 μg/ml
  inhibition at 0.1 µg/mL: 65%
[1]; 1 μg/ml
  inhibition at 1 µg/mL: 80%

## CC(=O)OCC(CCn1cnc2cnc(N)nc21)COC(C)=O [Famvir]
HBV
  suppressing the proliferation of HBV: effective in suppressing the proliferation of HBV

## Nc1ccn([C@@H]2CS[C@H](CO)O2)c(=O)n1 [Lamivudine]
HBV
  suppressing the proliferation of HBV: effective in suppressing the proliferation of HBV
